From patent US20090274674A1, “Heterocyclic Oxime Compounds, Process for Their Preparation and Pharmaceutical Compositions Containing Them” (LES LABORATOIRES SERVIER, priority 2005, published 2009)

Tests used:
ob/ob mouse = assay: Antidiabetic and hypolipaemic effect in the ob/ob mouse; format: in vivo; details: male ob/ob mouse, 3 mg/kg oral once per day for four days, measured 24 hours after the final administration
Description: Mutations in laboratory animals and also different sensitivities to dietary regimens have allowed the development of animal models having non-insulin-dependent diabetes and hyperlipidaemia associated with obesity and with resistance to insulin. Genetic mice models (ob/ob) (Diabetes, 1982, 31 (1), 1-6) and Zucker (fa/fa) rats have been developed by various laboratories in order to understand the physiopathology of those diseases and test the effectiveness of new antidiabetic compounds (Diabetes, 1983, 32, 830-838).
Antidiabetic and Hypolipaemic Effect in the ob/ob Mouse
The 10-week-old male ob/ob mouse (Harlan) is used for the in vivo tests. The animals are kept in a light-darkness cycle of 12 hours at 25° C. This mouse has a basal hyperglycaemia of 2 g/l. The animals are randomly selected with regard to their glycaemia to form groups of eight. The compounds tested by the oral route are dissolved in a mixture of hydroxyethyl cellulose (HEC 1%) to be administered at 3 mg/kg in a volume of 10 ml/kg once per day for four days. The control group receives the solvents under the same conditions as the treated groups. The activity of the products is evaluated by measuring glycaemia, triglyceridaemia and insulinaemia 24 hours after the final administration and by measuring body weight daily.

| melting point | Structure (SMILES) | reduction in glycaemia compared with the control (ob/ob mouse) [%] | reduction in insulinaemia compared with the control group (ob/ob mouse) [%] | reduction in triglyceridaemia compared with the control group (ob/ob mouse) [%] |
| --- | --- | --- | --- | --- |
| 145 °C | CCOC(Cc1ccc(OCCn2ccc3cc(C(=NOC)c4ccccc4)cnc32)cc1)C(=O)OC (stereo not drawn) [Example 11, Methyl 2-ethoxy-3-[4-(2-{5-[(methoxyimino)(phenyl)methyl]-1H-pyrrolo[2,3-b]pyridin-1-yl}ethoxy)phenyl]propanoate] | – | – | – |
| 182 °C (dec.) | CON=C(c1ccccc1)c1cnc2c(ccn2CCOc2ccc(CC(OCC(F)(F)F)C(=O)O)cc2)c1 (stereo not drawn) [Example 14, 3-[4-(2-{5-[(Methoxyimino)(phenyl)methyl]-1H-pyrrolo[2,3-b]pyridin-1-yl}ethoxy)phenyl]-2-(2,2,2-trifluoroethoxy)propanoic acid] | – | – | – |
| 186 °C | CO/N=C(/c1ccccc1)c1cnc2c(ccn2CCOc2ccc(CC(OCC(F)(F)F)C(=O)O)cc2)c1Cl (stereo not drawn) [Example 16, 3-[4-(2-{4-Chloro-5-[(Z)-(methoxyimino)(phenyl)methyl]-1H-pyrrolo[2,3-b]pyridin-1-yl}ethoxy)phenyl]-2-(2,2,2-trifluoro-ethoxy)propanoic acid] | – | – | – |
| – | CON=C(c1ccccc1)c1ccc2ccn(CCOc3ccc(C[C@H](OCC(F)(F)F)C(=O)O)cc3)c2n1 [Example 32, (2S)-3-[4-(2-{6-[(Methoxyimino) (phenyl)methyl]-1H-pyrrolo[2,3-b]pyridin-1-yl}ethoxy)phenyl]-2-(2,2,2-trifluoroethoxy)propanoic acid] | 43 | 23 | 37 |
